Assay results published in patent US20210186954A1, “DRUG PRODUCTS FOR NASAL ADMINISTRATION AND USES THEREOF” (Summit Biosciences Inc., priority 2018, published 2021).
Read-outs that look alike come from different tables or passages of the source.

Tests used:
[1] = Dissolution of chlorobutanol in water during preparation of F1(d); assay type: physicochemical
Protocol: Chlorobutanol dissolves into water very slowly at ambient temperatures. Therefore during the preparation of F1(d), USP-PW was heated. After 18 minutes, the solution was clear and all of the chlorobutanol was completely dissolved.

heroin overdose = details: IM naloxone; cited from earlier work
[2] = system: patients with suspected narcotic overdose; details: cited from earlier work
opiate addicts = details: nasal vs intravenous route; cited from earlier work
[3] = system: patients with suspected opioid overdose; details: cited from earlier work
[4] = 2 mg nasal solution dose; predicted by Wermeling; cited from earlier work
[5] = system: suspected opiate overdose; details: 2 mg IN, cited from earlier work
[6] = system: suspected opiate overdose; details: cited from earlier work
overdose events = details: 399 overdose events where naloxone was used; cited from earlier work

Row | Structure (SMILES) | Dissolution into water ([1]; ambient temperatures) | Time until solution clear and chlorobutanol completely dissolved ([1]; heated USP-PW, preparation of F1(d)) | patients given supplementary naloxone (heroin overdose) | clinical response ([2]; IN group) | clinical response ([2]; IV group) | effectiveness of nasal administration (opiate addicts) | mean interval from EMS arrival to respiratory rate ≥10 breaths/min ([3]; naloxone 0.4 mg IV) | mean interval from EMS arrival to respiratory rate ≥10 breaths/min ([3]; naloxone 0.8 mg SQ) | Cmax [4] | tmax [4] | responders responding to IN naloxone alone ([5]; 43 of 52 responders) | median time from administration of IN naloxone to awakening [5] | more than 10 spontaneous respirations per minute within 8 minutes ([6]; 2 mg IM) | more than 10 spontaneous respirations per minute within 8 minutes ([6]; 2 mg IN, mucosal atomizer) | needing rescue naloxone ([6]; IM group) | needing rescue naloxone ([6]; IN group) | overdose events reported reversed (overdose events)
1 | CC(C)(O)C(Cl)(Cl)Cl [Chlorobutanol, 1,1,1-trichloro-2-methylpropan-2-ol] | very slowly | 18 min |  |  |  |  |  |  |  |  |  |  |  |  |  |  | 
2 | C=CCN1CC[C@]23c4c5ccc(O)c4O[C@H]2C(=O)CC[C@@]3(O)[C@H]1C5 [naloxone, 17-allyl-4,5a-epoxy-3,14-dihydroxymorphinan-6-one] |  |  | 4.5% | 66% | 56% | as effective as the intravenous route | 9.3 ± 4.2 min | 9.6 ± 4.58 min | 3 to 5 ng/mL | approximately 20 minutes | 83% | 3.0 min | 82% | 63% | 13% | 26% | 89%
